Test results reported in US20030120046A1, “Radioisotope-labeled complexes of glucose derivatives and kits for the preparation thereof” (priority 2000, published 2003).
Read-outs that look alike come from different tables or passages of the source.

Experiments:
[1] = Stability test of radiopharmaceuticals in the human plasma (purity by TLC); type: in vitro ADME; conditions: room temperature, mean of 3 experiments
Description: (§1) The stability of radiopharmaceuticals was expressed as the purity of radiopharmaceutical at a given time, and measured after 0, 2, 4 and 6 hrs in a physiological saline and the human plasma, respectively. […] After well stirring the ingredients in each vial, the stability was measured at given times at room temperature.
(§2) The stability was measured as follows. 5 μl of each radiopharmaceutical was deposited in the lower part of TLC and was developed using methyl ethyl ketone (or acetone) and 0.9% physiological saline, respectively. Upon completion of development, each TLC was equally divided into 2 parts and the radioactivity of each part was measured using gamma counter. The stability was calculated by measurement of the purity from the obtained radioactivity. […] The purity of radiopharmaceuticals is calculated as follows.
(§3) 100%−[(radioactivity in the upper part of TLC developed with acetone÷radioactivity in the whole TLC developed with acetone)+(radioactivity in the lower part of TLC developed with 0.9% physiological saline÷radioactivity in the whole TLC developed with 0.9% physiological saline)]×100%

[2] = Stability test of radiopharmaceuticals in a physiological saline (purity by TLC); type: physicochemical; conditions: room temperature, mean of 3 experiments
Description: as §1, §2, §3

[3] = tested on: tumor; conditions: background art, in words; cited from earlier work
[4] = tested on: VX-2 tumor cells; conditions: for Normal region counts / Tumor counts: 1.5 mCi i.v.
Description: Further, ^99mTc-labeled radiopharmaceuticals were tested for their stability in a physiological saline and the human plasma with the lapse of time (see Example 4). […] The radiopharmaceuticals of the present invention were tested for biodistribution and the uptake level in rabbits transplanted with VX-2 tumor cells and then, compared with ^99mTc-MIBI currently used for imaging tumor in nuclear medicine (see Example 5). More specifically, ^99mTc-labeled glucose derivatives were injected to rabbits transplanted with tumor cells to obtain image using gamma camera. Then, the organs were removed to measure biodistribution and the uptake level of radiopharmaceuticals by calculating % ID (injected dose)/g, indicative of the uptake level of the injected radiopharmaceuticals per weight of tissues.
VX-2 tumor cells were ground in 2 ml of a physiological saline and then, transplanted via intramuscular injection to the right thigh muscle of three rabbits (New Zealand White species) weighing 2.5 to 3 kg using a syringe. Then, the rabbits were bred for 3 weeks to grow tumor to have a diameter of 2 to 3 cm. […] After injection, the rabbits were laid down under gamma camera and the gamma camera was controlled to cover the whole body and images were obtained for 15 minutes at 1 and 3 hours after injection, respectively.
The image of ^99mTc-MIBI was obtained at 10 minutes after injection. […] It is conventional that the standardized imaging time cannot be applied for radiopharmaceuticals since their physical, chemical and physiological properties all are different. Thus, the optimal imaging time may be set depending upon the employed radiopharmaceutical.
After obtaining image of the regions of interest, the uptake level of radioactivity was calculated from counts (unit of radioactivity) obtained by a particular program equipped with a gamma camera.

[5] = anterior image, 10 minutes after injection (footnote)
[6] = posterior image, 10 minutes after injection (footnote)

Row | Compound | Purity of radiopharmaceuticals at given times ([1]; 0 h) | Purity of radiopharmaceuticals at given times ([1]; 2 h) | Purity of radiopharmaceuticals at given times ([1]; 4 h) | Purity of radiopharmaceuticals at given times ([1]; 6 h) | Purity of radiopharmaceuticals at given times ([2]; 0 h) | Purity of radiopharmaceuticals at given times ([2]; 2 h) | Purity of radiopharmaceuticals at given times ([2]; 4 h) | Purity of radiopharmaceuticals at given times ([2]; 6 h) | uptake rate in the abdomen [3] | uptake rate in tumor [3] | wash-out rate in vivo [3] | Tumor/Normal ratio [4, 5] | Normal region counts [4, 5] | Tumor counts [4, 5] | Tumor uptake/normal region uptake ratio ([4]; anterior image, 10 minutes after injection (footnote), Mean ± S.D. from 3 experiments) | wash-out in vivo ([4]; image cannot be practically obtained at 30 minutes or more after injection, in words) | Tumor/Normal ratio [4, 6] | Normal region counts [4, 6] | Tumor counts [4, 6]
1 | ^99mTc-glucosamine | 99.5% | 95.4% | 95.0% | 92.4% | 99.5% | 98.9% | 98.0% | 97.6% |  |  |  |  |  |  |  |  |  |  | 
2 | [99Tc].[C-]#[N+]CC(C)(C)OC.[C-]#[N+]CC(C)(C)OC.[C-]#[N+]CC(C)(C)OC.[C-]#[N+]CC(C)(C)OC.[C-]#[N+]CC(C)(C)OC.[C-]#[N+]CC(C)(C)OC [^99mTc-MIBI, ^99mTc-MIBI (methoxy isobutyl isonitrile)] |  |  |  |  |  |  |  |  | high | unsatisfactory | high | 1.7 | 5829 counts | 9931 counts | 2.22 ± 0.87 | rapidly washed out | 2.0 | 6566 counts | 13047 counts
